Laboratory results: US20190085024A1, “Alpha-Ketoamide Inhibitors Of Cysteine Proteases” (Phelix Therapeutics, priority 2017, published 2019)

What was measured:
Cat S = Cat S (Homo sapiens, UniProt P25774); assay: Cat S inhibition; assay type: biochemical
[1] = system: EBOV WT (Ebola Wild Type); assay: microbe, parasite or virus in culture; assay type: cell-based; details: Zaire ebolavirus, read-out: EBOV WT (μM) (Ebola Wild Type)
Cat K = target: T1, Cat K (Homo sapiens, UniProt P43235); assay: Cat K inhibition; assay type: biochemical
T1 sequence (P43235 115-329): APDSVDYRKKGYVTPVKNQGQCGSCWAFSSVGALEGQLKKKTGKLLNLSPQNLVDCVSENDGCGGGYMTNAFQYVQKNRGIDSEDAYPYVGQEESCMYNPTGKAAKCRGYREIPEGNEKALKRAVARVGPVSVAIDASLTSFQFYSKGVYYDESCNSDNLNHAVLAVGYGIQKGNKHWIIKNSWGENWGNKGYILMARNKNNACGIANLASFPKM

MERS WT = assay: microbe, parasite or virus in culture; assay type: cell-based; details: Middle East respiratory syndrome-related coronavirus, read-out: MERS WT (μM)
Cathepsin L = Cathepsin L (Homo sapiens, UniProt P07711); assay: Cathepsin L enzyme assay; assay type: biochemical; details: Ki by Morrison equation; pH 5.5, substrate Z-Phe-Arg-Amc; read-out: Cat L
Chain of Cathepsin L (P07711 114-333, species assumed): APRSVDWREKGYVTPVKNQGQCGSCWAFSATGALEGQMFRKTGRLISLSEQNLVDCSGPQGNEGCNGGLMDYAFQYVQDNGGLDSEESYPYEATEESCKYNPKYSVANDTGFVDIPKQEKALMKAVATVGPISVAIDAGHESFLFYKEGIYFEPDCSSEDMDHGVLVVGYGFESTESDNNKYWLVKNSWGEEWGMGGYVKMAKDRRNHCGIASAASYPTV
Description: Two wells contained DMSO only for controls.
Velocity was converted to μM/sec.

Calpain = Calpain enzyme assay; assay type: biochemical; details: Ki by Morrison equation; pH 7.5, 5 mM CaCl2
Cathepsin B = Cathepsin B (Homo sapiens, UniProt P07858); assay: Cathepsin B enzyme assay; details: Cat B (μM), Ki by Morrison equation; pH 6.0, substrate Z-Phe-Arg-Amc
Collagen = assay: Fibrosis-Sirius Red Collagen Assay; assay type: cell-based

Chain of Cat S (P25774 115-331): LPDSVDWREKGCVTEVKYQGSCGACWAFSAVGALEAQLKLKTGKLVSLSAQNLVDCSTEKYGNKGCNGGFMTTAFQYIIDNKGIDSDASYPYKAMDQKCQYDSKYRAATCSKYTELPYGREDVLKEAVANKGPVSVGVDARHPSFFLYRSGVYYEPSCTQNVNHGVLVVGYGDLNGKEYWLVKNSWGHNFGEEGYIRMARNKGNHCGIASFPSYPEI

Compound	Ki (Cat S)	IC50 [1]	Ki (Cat K)	IC50 (MERS WT)	Ki (Cathepsin L)	Ki (Calpain)	Ki (Cathepsin B)	IC50 (Collagen)
CC(NC(=O)C(Cc1ccccc1F)NC(=O)Cc1ccccc1)C(=O)C(=O)NC(Cc1ccccc1)C(=O)NC(C)(C)C(N)=O (stereo not drawn) [PHELIX207, N-(1-((1-amino-2-methyl-1-oxopropan-2-yl)amino)-1-oxo-3-phenylpropan-2-yl)-3-(3-(2-fluorophenyl)-2-(2-phenylacetamido)propanamido)-2-oxobutanamide]	2.6 nM	8.59 µM	430 nM	195 µM	15 nM	> 10000 nM	0.187 µM	
CC(NC(=O)C(Cc1ccccc1)NC(=O)c1cccc(F)c1)C(=O)C(=O)NC(Cc1ccccc1)C(=O)NC(C)(C)C(N)=O (stereo not drawn) [PHELIX222, N-(1-((4-((1-((1-amino-2-methyl-1-oxopropan-2-yl)amino)-1-oxo-3-phenylpropan-2-yl)amino)-3,4-dioxobutan-2-yl)amino)-1-oxo-3-phenylpropan-2-yl)-3-fluorobenzamide]	17.7 nM	5.19 µM	3320 nM	151 µM	25 nM	> 10000 nM	1.83 µM	
CC(NC(=O)C(Cc1ccccc1)NC(=O)Cc1cccc(F)c1)C(=O)C(=O)NC(Cc1ccccc1)C(=O)NC(C)(C)C(N)=O (stereo not drawn) [PHELIX227, N-(1-((1-amino-2-methyl-1-oxopropan-2-yl)amino)-1-oxo-3-phenylpropan-2-yl)-3-(2-(2-(3-fluorophenyl)acetamido)-3-phenylpropanmido)-2-oxobutanamide]	16.3 nM	16.8 µM	536 nM	> 10 µM	58.9 nM	> 10000 nM	0.171 µM	
CCC(C)C(NC(=O)C(CC(C)C)NC(=O)OCc1ccccc1)C(=O)C(=O)NCC(=O)N(C)C(Cc1ccccc1)C(N)=O (stereo not drawn) [PHELIX319, benzyl (1-((1-((2-((1-amino-1-oxo-3-phenylpropan-2-yl)(methyl)amino)-2-oxoethyl)amino)-4-methyl-1,2-dioxohexan-3-yl)amino)-4-methyl-1-oxopentan-2-yl)carbamate]					0.28 nM	0.68 nM	0.456 µM	11700 nM
CC(NC(=O)C(Cc1cccc(F)c1)NC(=O)Cc1ccccc1)C(=O)C(=O)NC(Cc1ccccc1)C(=O)NC(C)(C)C(N)=O (stereo not drawn) [PHELIX212, N-(1-((1-amino-2-methyl-1-oxopropan-2-yl)amino)-1-oxo-3-phenylpropan-2-yl)-3-(3-(3-fluorophenyl)-2-(2-phenylacetamido)propanamido)-2-oxobutanamide]	13.7 nM	7.41 µM	1200 nM	139 µM	20.3 nM	> 10000 nM	0.231 µM	
CCC(C)C(NC(=O)C(CC(C)C)NC(=O)Cc1ccccc1)C(=O)C(=O)NCC(=O)NC(Cc1ccc2ccccc2c1)C(N)=O (stereo not drawn) [PHELIX300, N-(2-((1-amino-3-(naphthalen-2-yl)-1-oxopropan-2-yl)amino)-2-oxoethyl)-4-methyl-3-(4-methyl-2-(2-phenylacetamido)pentanamido)-2-oxohexanamide]					0.02 nM	0.81 nM		4500 nM
CC(NC(=O)C(Cc1cccc(C(F)(F)F)c1)NC(=O)Cc1ccccc1)C(=O)C(=O)NC(Cc1ccccc1)C(=O)NC(C)(C)C(N)=O (stereo not drawn) [PHELIX209, N-(1-((1-amino-2-methyl-1-oxopropan-2-yl)amino)-1-oxo-3-phenylpropan-2-yl)-2-oxo-3-(2-(2-phenylacetamido)-3-(3-(trifluoromethyl)phenyl)propanamido)butanamide]	39.9 nM	7.87 µM	> 10000 nM	> 10 µM	66.3 nM	> 10000 nM	0.234 µM	
